Measurements from patent US6825187B2, “Carbapenem derivatives of quarternary salt type” (Meiji Seika Kaisha, Ltd., priority 2000, dated 2004).
In brackets after ≈: the same amount, converted by molar mass. Structures can show the parent of a compound that is named as a salt.

Tests used:
H. influenzae PRC 2 = assay: Antimicrobial activities, MIC; format: cell-based; conditions: inoculants 10^6 CFU/ml; for minimum inhibiting concentrations (MIC): Sensitivity Disk agar-N+5% Horse blood
Description: (§1) The minimum inhibiting concentrations (MIC, μg/ml) of representative compounds, among the novel carbapenem derivatives of the present invention, to various pathogenic bacteria were measured in accordance with the method described in CHEMOTHERAPY, vol. 16, No. 1, 99, 1968. The culture medium for the measurement is Sensitivity Disk agar-N+5% Horse blood, and the amount of inoculants used is 10^6 CFU/ml.

[1] = test system: S. epidermidis ATCC 14990; assay: Antimicrobial activities, MIC; format: cell-based; conditions: inoculants 10^6 CFU/ml; for minimum inhibiting concentrations (MIC): Sensitivity Disk agar-N+5% Horse blood
Description: as §1

K. pneumoniae PC 1602 = assay: Antimicrobial activities, MIC; format: cell-based; conditions: inoculants 10^6 CFU/ml; for minimum inhibiting concentrations (MIC): Sensitivity Disk agar-N+5% Horse blood
Description: as §1

[2] = test system: S. aureus M 126 (Methicillin-hyperresistant strain); assay: Antimicrobial activities, MIC; format: cell-based; conditions: Sensitivity Disk agar-N+5% Horse blood, inoculants 10^6 CFU/ml
Description: as §1

E. coli NIHJ JC-2 = assay: Antimicrobial activities, MIC; format: cell-based; conditions: inoculants 10^6 CFU/ml; for minimum inhibiting concentrations (MIC): Sensitivity Disk agar-N+5% Horse blood
Description: as §1

C. freundii GN 346 = assay: Antimicrobial activities, MIC; format: cell-based; conditions: inoculants 10^6 CFU/ml; for minimum inhibiting concentrations (MIC): Sensitivity Disk agar-N+5% Horse blood
Description: as §1

S. aureus 209P JC-1 = assay: Antimicrobial activities, MIC; format: cell-based; conditions: Sensitivity Disk agar-N+5% Horse blood, inoculants 10^6 CFU/ml
Description: as §1

E. faecalis W-73 = assay: Antimicrobial activities, MIC; format: cell-based; conditions: inoculants 10^6 CFU/ml; for minimum inhibiting concentrations (MIC): Sensitivity Disk agar-N+5% Horse blood
Description: as §1

[3] = test system: S. pneumoniae PRC 9 (Penicillin-hyperresistant strain); assay: Antimicrobial activities, MIC; format: cell-based; conditions: Sensitivity Disk agar-N+5% Horse blood, inoculants 10^6 CFU/ml
Description: as §1

B. catarrhalis W-0500 = assay: Antimicrobial activities, MIC; format: cell-based; conditions: inoculants 10^6 CFU/ml; for minimum inhibiting concentrations (MIC): Sensitivity Disk agar-N+5% Horse blood
Description: as §1

P. vulgaris GN 7919 = assay: Antimicrobial activities, MIC; format: cell-based; conditions: inoculants 10^6 CFU/ml; for minimum inhibiting concentrations (MIC): Sensitivity Disk agar-N+5% Horse blood
Description: as §1

E. hirae ATCC 8043 = assay: Antimicrobial activities, MIC; format: cell-based; conditions: inoculants 10^6 CFU/ml; for minimum inhibiting concentrations (MIC): Sensitivity Disk agar-N+5% Horse blood
Description: as §1

H. influenzae PRC 44 = assay: Antimicrobial activities, MIC; format: cell-based; conditions: inoculants 10^6 CFU/ml; for minimum inhibiting concentrations (MIC): Sensitivity Disk agar-N+5% Horse blood
Description: as §1

mice (ICR, male) = assay: Acute Toxicity Test; format: in vivo; conditions: intraveneously administered, 2000 mg/kg, one group of three mice
Description: The compound of Example 3 according to the present invention was intraveneously administered at a dose of 2000 mg/kg to mice (ICR, male) (one group consisting of three mice).

[4] = Staphylococcus aureus, read-out: minimum inhibiting concentrations (MIC)

CSc1c2sc(C3=C(C(=O)[O-])N4C(=O)[C@H]([C@@H](C)O)[C@H]4[C@H]3C)cn2c[n+]1CCCN.Cl [Example 14, (1S,5R,6S)-2-[6-(3-aminopropyl)-7-methylthioimidazo[5,1-b]thiazolium-2-yl]-6-((1R)-1-hydroxyethyl)-1-methyl-1-carbapen-2-em-3-carboxylate (intramolecular salt) hydrochloride]
minimum inhibiting concentrations (MIC) (H. influenzae PRC 2): 0.05 µg/mL | minimum inhibiting concentrations (MIC) [1]: <0.025 µg/mL | minimum inhibiting concentrations (MIC) (K. pneumoniae PC 1602): 0.10 µg/mL | minimum inhibiting concentrations (MIC) [2]: 0.39 µg/mL | minimum inhibiting concentrations (MIC) (E. coli NIHJ JC-2): 0.05 µg/mL | minimum inhibiting concentrations (MIC) (C. freundii GN 346): 0.10 µg/mL | minimum inhibiting concentrations (MIC) (S. aureus 209P JC-1): <0.025 µg/mL | minimum inhibiting concentrations (MIC) (E. faecalis W-73): 0.20 µg/mL | minimum inhibiting concentrations (MIC) [3]: 0.025 µg/mL | minimum inhibiting concentrations (MIC) (B. catarrhalis W-0500): 0.025 µg/mL | minimum inhibiting concentrations (MIC) (P. vulgaris GN 7919): 0.39 µg/mL | minimum inhibiting concentrations (MIC) (E. hirae ATCC 8043): 0.39 µg/mL | minimum inhibiting concentrations (MIC) (H. influenzae PRC 44): 0.78 µg/mL

C[C@@H](O)[C@H]1C(=O)N2C(C(=O)[O-])=C(c3cn4c[n+](C)cc4s3)[C@H](C)[C@H]12 [Compound B, (1S,5R,6S)-6-((1R)-1-Hydroxyethyl)-1-methyl-2-(6-methylimidazo[5,1-b]thiazolium-2-yl)-1-carbapen-2-em-3-carboxylate (intramolecular salt), reference compound]
minimum inhibiting concentrations (MIC) (H. influenzae PRC 2): 0.10 µg/mL | minimum inhibiting concentrations (MIC) [1]: <0.025 µg/mL | minimum inhibiting concentrations (MIC) (K. pneumoniae PC 1602): 0.10 µg/mL | minimum inhibiting concentrations (MIC) [2]: 3.13 µg/mL | minimum inhibiting concentrations (MIC) (E. coli NIHJ JC-2): <0.025 µg/mL | minimum inhibiting concentrations (MIC) (C. freundii GN 346): 0.10 µg/mL | minimum inhibiting concentrations (MIC) (S. aureus 209P JC-1): <0.025 µg/mL | minimum inhibiting concentrations (MIC) (E. faecalis W-73): 0.20 µg/mL | minimum inhibiting concentrations (MIC) [3]: 0.05 µg/mL | minimum inhibiting concentrations (MIC) (B. catarrhalis W-0500): <0.025 µg/mL | minimum inhibiting concentrations (MIC) (P. vulgaris GN 7919): 0.20 µg/mL | minimum inhibiting concentrations (MIC) (E. hirae ATCC 8043): 0.78 µg/mL | minimum inhibiting concentrations (MIC) (H. influenzae PRC 44): 0.39 µg/mL

C[C@@H](O)[C@H]1C(=O)N2C(C(=O)O)=C(SCCN=CN)C[C@H]12 [Compound A, Imipenem, reference compound]
MIC (H. influenzae PRC 2; Haemophilus influenzae, PRC2, Sensitivity Disk agar-N+5% Horse blood, read-out: minimum inhibiting concentrations (MIC)): 0.79 µg/mL (≈ 2.64 µM) | MIC ([1]; Staphylococcus epidermidis, ATCC14990, Sensitivity Disk agar-N+5% Horse blood, read-out: minimum inhibiting concentrations (MIC)): < 0.025 µg/mL | MIC (K. pneumoniae PC 1602; Klebsiella pneumoniae, PC1602, Sensitivity Disk agar-N+5% Horse blood, read-out: minimum inhibiting concentrations (MIC)): 0.2 µg/mL (≈ 0.668 µM) | MIC [2, 4]: 25 µg/mL (≈ 83.5 µM) | MIC (E. coli NIHJ JC-2; Escherichia coli, NIHJJC2, Sensitivity Disk agar-N+5% Horse blood, read-out: minimum inhibiting concentrations (MIC)): 0.1 µg/mL (≈ 0.334 µM) | MIC (C. freundii GN 346; Citrobacter freundii, GN346, Sensitivity Disk agar-N+5% Horse blood, read-out: minimum inhibiting concentrations (MIC)): 0.2 µg/mL (≈ 0.668 µM) | MIC (S. aureus 209P JC-1; [4]): < 0.025 µg/mL | MIC (E. faecalis W-73; Enterococcus faecalis, W73, Sensitivity Disk agar-N+5% Horse blood, read-out: minimum inhibiting concentrations (MIC)): 0.78 µg/mL (≈ 2.61 µM) | MIC ([3]; Streptococcus pneumoniae, read-out: minimum inhibiting concentrations (MIC)): 0.2 µg/mL (≈ 0.668 µM) | MIC (B. catarrhalis W-0500; Moraxella catarrhalis, W0500, Sensitivity Disk agar-N+5% Horse blood, read-out: minimum inhibiting concentrations (MIC)): 0.05 µg/mL (≈ 0.167 µM) | MIC (P. vulgaris GN 7919; Proteus vulgaris, GN7919, Sensitivity Disk agar-N+5% Horse blood, read-out: minimum inhibiting concentrations (MIC)): 0.1 µg/mL (≈ 0.334 µM) | MIC (E. hirae ATCC 8043; Enterococcus hirae, ATCC8043, Sensitivity Disk agar-N+5% Horse blood, read-out: minimum inhibiting concentrations (MIC)): 0.78 µg/mL (≈ 2.61 µM) | MIC (H. influenzae PRC 44; Haemophilus influenzae, PRC44, Sensitivity Disk agar-N+5% Horse blood, read-out: minimum inhibiting concentrations (MIC)): 12.5 µg/mL (≈ 41.8 µM)

CSc1c2sc(C3=C(C(=O)[O-])N4C(=O)[C@H]([C@@H](C)O)[C@H]4[C@H]3C)cn2c[n+]1C [Example 2, (1S,5R,6S)-6-((1R)-1-hydroxyethyl)-1-methyl-2-(6-methyl-7-methylthioimidazo[5,1-b]thiazolium-2-yl)-1-carbapen-2-em-3-carboxylate (intramolecular salt)]
minimum inhibiting concentrations (MIC) (H. influenzae PRC 2): 0.05 µg/mL | minimum inhibiting concentrations (MIC) [1]: <0.025 µg/mL | minimum inhibiting concentrations (MIC) (K. pneumoniae PC 1602): 0.10 µg/mL | minimum inhibiting concentrations (MIC) [2]: 1.56 µg/mL | minimum inhibiting concentrations (MIC) (E. coli NIHJ JC-2): 0.025 µg/mL | minimum inhibiting concentrations (MIC) (C. freundii GN 346): 0.10 µg/mL | minimum inhibiting concentrations (MIC) (S. aureus 209P JC-1): <0.025 µg/mL | minimum inhibiting concentrations (MIC) (E. faecalis W-73): 0.20 µg/mL | minimum inhibiting concentrations (MIC) [3]: 0.025 µg/mL | minimum inhibiting concentrations (MIC) (B. catarrhalis W-0500): 0.025 µg/mL | minimum inhibiting concentrations (MIC) (P. vulgaris GN 7919): 0.20 µg/mL | minimum inhibiting concentrations (MIC) (E. hirae ATCC 8043): 0.78 µg/mL | minimum inhibiting concentrations (MIC) (H. influenzae PRC 44): 0.20 µg/mL

CSc1c2sc(C3=C(C(=O)[O-])N4C(=O)[C@H]([C@@H](C)O)[C@H]4[C@H]3C)cn2c[n+]1C[C@H](O)CN.Cl [Example 99, (1S,5R,6S)-2-[6-((2R)-3-amino-2-hydroxy)propyl-7-methylthioimidazo[5,1-b]thiazolium-2-yl]-6-((1R)-1-hydroxyethyl)-1-methyl-1-carbapen-2-em-3-carboxylate (intramolecular salt) hydrochloride]
minimum inhibiting concentrations (MIC) (H. influenzae PRC 2): 0.10 µg/mL | minimum inhibiting concentrations (MIC) [1]: <0.025 µg/mL | minimum inhibiting concentrations (MIC) (K. pneumoniae PC 1602): 0.10 µg/mL | minimum inhibiting concentrations (MIC) [2]: 0.78 µg/mL | minimum inhibiting concentrations (MIC) (E. coli NIHJ JC-2): 0.05 µg/mL | minimum inhibiting concentrations (MIC) (C. freundii GN 346): 0.20 µg/mL | minimum inhibiting concentrations (MIC) (S. aureus 209P JC-1): <0.025 µg/mL | minimum inhibiting concentrations (MIC) (E. faecalis W-73): 0.20 µg/mL | minimum inhibiting concentrations (MIC) [3]: 0.05 µg/mL | minimum inhibiting concentrations (MIC) (B. catarrhalis W-0500): 0.05 µg/mL | minimum inhibiting concentrations (MIC) (P. vulgaris GN 7919): 0.39 µg/mL | minimum inhibiting concentrations (MIC) (E. hirae ATCC 8043): 0.39 µg/mL | minimum inhibiting concentrations (MIC) (H. influenzae PRC 44): 0.78 µg/mL

CSc1c2sc(C3=C(C(=O)[O-])N4C(=O)[C@H]([C@@H](C)O)[C@H]4[C@H]3C)cn2c[n+]1CC(N)=O [Example 3, (1S,5R,6S)-2-(6-carbamoylmethyl-7-methylthioimidazo[5,1-b]thiazolium-2-yl)-6-((1R)-1-hydroxyethyl)-1-methyl-1-carbapen-2-em-3-carboxylate (intramolecular salt)]
minimum inhibiting concentrations (MIC) (H. influenzae PRC 2): 0.05 µg/mL | minimum inhibiting concentrations (MIC) [1]: <0.025 µg/mL | minimum inhibiting concentrations (MIC) (K. pneumoniae PC 1602): 0.10 µg/mL | minimum inhibiting concentrations (MIC) [2]: 1.56 µg/mL | minimum inhibiting concentrations (MIC) (E. coli NIHJ JC-2): 0.025 µg/mL | minimum inhibiting concentrations (MIC) (C. freundii GN 346): 0.20 µg/mL | minimum inhibiting concentrations (MIC) (S. aureus 209P JC-1): <0.025 µg/mL | minimum inhibiting concentrations (MIC) (E. faecalis W-73): 0.20 µg/mL | minimum inhibiting concentrations (MIC) [3]: 0.025 µg/mL | minimum inhibiting concentrations (MIC) (B. catarrhalis W-0500): 0.025 µg/mL | minimum inhibiting concentrations (MIC) (P. vulgaris GN 7919): 0.20 µg/mL | minimum inhibiting concentrations (MIC) (E. hirae ATCC 8043): 0.39 µg/mL | minimum inhibiting concentrations (MIC) (H. influenzae PRC 44): 0.20 µg/mL | survival in acute toxicity test (mice (ICR, male)): all the mice survived
